Entries after “also recorded” stand apart in the source; their conditions may differ.
Legend:
[1] = system: T. cruzi epimastigotes; test: Alamar Blue viability assay of T. cruzi epimastigotes; type: cell-based, Trypanosoma cruzi (Y strain); conditions: Trypanosoma cruzi, 72 h, epimastigotes incubated 3 days with compound; for EC50: concentration inhibiting 50% of multiplication; for EC90: concentration inhibiting 90% of multiplication
Protocol: T. cruzi epimastigotes were incubated in culture medium for three days with 25 different compounds at 10 µM.
T. cruzi epimastigotes at 1 × 10^7/mL in 50 µL were incubated in 96-wells plates with the same volume of compounds pre-diluted in 50 µL of LIT medium for 48 hours at 28 °C. LLC-MK2 cells (3 × 10^3) in 100 µL of medium were added to 96 well plates. After 5 hours, the medium was replaced by fresh medium containing serial dilutions of test compounds and incubations proceeded for 72 hours at 37 °C. In both cases, 10 µL of AlamarBlue (Thermo Fisher Scientific) was added and the plates were further incubated for 18 hours at 28 °C for epimastigotes and 4 hours at 37 °C for mammalian cells. Absorbance at 570 nm and 600 nm were measured by using a SpectraMax M3 (Molecular Devices). The differences between absorbance at 570 nm and 600 nm for each well was normalized against a blank value for medium without parasites and lysed cells. Alternatively, L6 rat myoblast cell death and lysis were determined using the cytotoxicity Detection Kit Plus LDH Version 6 (Roche) after 72 hours incubation with the indicated compounds using the manufacturer protocol. […] Each compound was tested in triplicates in at least two independent experiments, with exceptions appointed on Table 1. Selective index was estimated by the ratio between LLC-MK2 EC50 and epimastigotes EC50 on Table 1.

[2] = system: T. cruzi epimastigotes; test: T. cruzi epimastigote multiplication in culture (parasite counting); type: cell-based, Trypanosoma cruzi (Y strain)
[3] = system: T. brucei procyclic form (PCF); test: T. brucei procyclic form multiplication (parasite counting); type: cell-based, Trypanosoma brucei; conditions: 48 hours at 28 °C, Fig. 1B
[4] = system: heme regulated kinase; set-up: method as in PMID 21765405; conditions: cited from earlier work
[5] = system: mammalian eIF2α kinases; set-up: method as in PMID 21765405, PMID 28590739; conditions: cited from earlier work

| SMILES | EC50 [1] | EC90 [1] | effect on T. cruzi epimastigote multiplication at 10 µM ([2]; 10 µM, three days in culture medium) | inhibition of epimastigote multiplication (counting) ([2]; all tested concentrations, 48 hours, Fig. 1A) | multiplication of T. brucei PCF [3] | activity on heme regulated kinase leading to eIF2α phosphorylation [4] | activation of mammalian eIF2α kinases [5] |
| --- | --- | --- | --- | --- | --- | --- | --- |
| O=C(Nc1ccc(Cl)c(Cl)c1)Nc1cc([N+](=O)[O-])ccc1Cl [NCPdCPU, 1-(2-chloro-5-nitrophenyl)-3-(3,4-dichlorophenyl) urea] | > 10 µM | > 10 µM | unable to produce any visible effect; also recorded: no activity | minimal inhibition | not | inactive | failed to activate |
| O=C(Nc1ccc(Cl)c(Cl)c1)Nc1ccc2nnsc2c1 [BTdCPU, 1-(benzo [d][1,2,3]thiadiazol-6-yl)-3-(3,4-dichlorophenyl) urea] | – | – | – | – | – | activator | – |
| O=C(Cn1ccnc1[N+](=O)[O-])NCc1ccccc1 [BZN, Benznidazole] | 211 ± 3 µM | 960 ± 25 µM | – | – | – | – | – |

— article PMC5861040, “Identification of di-substituted ureas that prevent growth of trypanosomes through inhibition of translation initiation” (Scientific Reports, 2018)
